Activity calls are given as the source filed them. Rule as the data show it, for most assays here: actives have a measured Kd and inactives only a lower limit.
Columns and labels:
[1] = biological target: Cyclin-dependent kinase 3 (Homo sapiens, UniProt Q00526)
[2] = biological target: T1, Activin receptor type-1B (Homo sapiens, UniProt P36896)
T1 sequence (P36896 whole entry): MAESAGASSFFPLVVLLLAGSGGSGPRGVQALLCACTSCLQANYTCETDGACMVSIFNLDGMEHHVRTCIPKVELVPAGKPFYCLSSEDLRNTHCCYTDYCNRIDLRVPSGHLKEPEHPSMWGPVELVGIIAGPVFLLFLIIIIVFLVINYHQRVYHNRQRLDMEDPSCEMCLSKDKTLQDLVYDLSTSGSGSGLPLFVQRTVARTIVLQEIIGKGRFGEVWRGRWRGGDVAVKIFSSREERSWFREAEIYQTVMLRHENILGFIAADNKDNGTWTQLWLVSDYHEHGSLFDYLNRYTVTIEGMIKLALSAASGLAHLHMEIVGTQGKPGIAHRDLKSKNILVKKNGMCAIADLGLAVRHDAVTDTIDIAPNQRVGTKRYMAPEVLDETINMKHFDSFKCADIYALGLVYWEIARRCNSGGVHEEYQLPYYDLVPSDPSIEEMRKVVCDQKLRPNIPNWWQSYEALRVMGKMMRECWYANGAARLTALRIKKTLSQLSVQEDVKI

[3] = biological target: Adenylate kinase 2, mitochondrial (Homo sapiens, UniProt P54819)
[4] = biological target: T2, Serine/threonine-protein kinase TAO3 (Homo sapiens, UniProt Q9H2K8)
T2 sequence (Q9H2K8 whole entry): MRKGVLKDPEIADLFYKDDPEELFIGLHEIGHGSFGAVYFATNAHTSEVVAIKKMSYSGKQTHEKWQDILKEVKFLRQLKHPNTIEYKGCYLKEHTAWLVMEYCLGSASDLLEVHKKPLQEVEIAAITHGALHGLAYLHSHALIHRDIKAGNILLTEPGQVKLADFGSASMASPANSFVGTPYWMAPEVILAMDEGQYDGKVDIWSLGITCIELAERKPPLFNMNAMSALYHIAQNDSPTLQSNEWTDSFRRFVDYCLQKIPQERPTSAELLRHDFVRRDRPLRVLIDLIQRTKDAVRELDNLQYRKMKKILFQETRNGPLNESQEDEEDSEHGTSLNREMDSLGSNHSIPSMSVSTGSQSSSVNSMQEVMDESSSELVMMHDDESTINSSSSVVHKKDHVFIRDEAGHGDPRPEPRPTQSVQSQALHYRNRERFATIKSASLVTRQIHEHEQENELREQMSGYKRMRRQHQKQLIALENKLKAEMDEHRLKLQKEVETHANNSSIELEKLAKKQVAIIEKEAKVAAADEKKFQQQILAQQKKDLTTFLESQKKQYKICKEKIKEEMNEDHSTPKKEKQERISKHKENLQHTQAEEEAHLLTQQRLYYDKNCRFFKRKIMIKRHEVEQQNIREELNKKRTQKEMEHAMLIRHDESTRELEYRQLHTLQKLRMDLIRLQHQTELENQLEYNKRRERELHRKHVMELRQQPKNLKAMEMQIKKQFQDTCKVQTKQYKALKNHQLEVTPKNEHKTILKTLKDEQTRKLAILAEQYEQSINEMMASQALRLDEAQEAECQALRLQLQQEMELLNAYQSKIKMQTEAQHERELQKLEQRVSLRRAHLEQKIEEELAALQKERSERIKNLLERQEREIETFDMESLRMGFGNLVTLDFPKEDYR

[5] = biological target: T3, Succinate--CoA ligase [ADP-forming] subunit beta, mitochondrial (Homo sapiens, UniProt Q9P2R7)
T3 sequence (Q9P2R7 whole entry): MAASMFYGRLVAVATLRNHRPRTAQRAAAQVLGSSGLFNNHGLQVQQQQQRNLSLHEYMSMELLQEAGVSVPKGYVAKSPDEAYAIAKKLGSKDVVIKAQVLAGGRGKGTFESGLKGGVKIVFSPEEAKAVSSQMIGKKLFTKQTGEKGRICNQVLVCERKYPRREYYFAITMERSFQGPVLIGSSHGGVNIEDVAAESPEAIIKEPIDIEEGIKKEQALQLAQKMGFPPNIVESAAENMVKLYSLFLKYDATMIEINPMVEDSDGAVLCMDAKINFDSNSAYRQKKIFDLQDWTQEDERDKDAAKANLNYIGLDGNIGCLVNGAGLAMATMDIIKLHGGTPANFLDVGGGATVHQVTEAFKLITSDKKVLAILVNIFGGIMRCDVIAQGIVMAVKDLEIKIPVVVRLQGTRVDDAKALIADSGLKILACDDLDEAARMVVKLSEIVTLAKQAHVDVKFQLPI

[6] = biological target: Calcium/calmodulin-dependent protein kinase type II subunit gamma (Homo sapiens, UniProt Q13555)
[7] = biological target: T4, ATP-dependent RNA helicase DDX42 (Homo sapiens, UniProt Q86XP3)
T4 sequence (Q86XP3 whole entry): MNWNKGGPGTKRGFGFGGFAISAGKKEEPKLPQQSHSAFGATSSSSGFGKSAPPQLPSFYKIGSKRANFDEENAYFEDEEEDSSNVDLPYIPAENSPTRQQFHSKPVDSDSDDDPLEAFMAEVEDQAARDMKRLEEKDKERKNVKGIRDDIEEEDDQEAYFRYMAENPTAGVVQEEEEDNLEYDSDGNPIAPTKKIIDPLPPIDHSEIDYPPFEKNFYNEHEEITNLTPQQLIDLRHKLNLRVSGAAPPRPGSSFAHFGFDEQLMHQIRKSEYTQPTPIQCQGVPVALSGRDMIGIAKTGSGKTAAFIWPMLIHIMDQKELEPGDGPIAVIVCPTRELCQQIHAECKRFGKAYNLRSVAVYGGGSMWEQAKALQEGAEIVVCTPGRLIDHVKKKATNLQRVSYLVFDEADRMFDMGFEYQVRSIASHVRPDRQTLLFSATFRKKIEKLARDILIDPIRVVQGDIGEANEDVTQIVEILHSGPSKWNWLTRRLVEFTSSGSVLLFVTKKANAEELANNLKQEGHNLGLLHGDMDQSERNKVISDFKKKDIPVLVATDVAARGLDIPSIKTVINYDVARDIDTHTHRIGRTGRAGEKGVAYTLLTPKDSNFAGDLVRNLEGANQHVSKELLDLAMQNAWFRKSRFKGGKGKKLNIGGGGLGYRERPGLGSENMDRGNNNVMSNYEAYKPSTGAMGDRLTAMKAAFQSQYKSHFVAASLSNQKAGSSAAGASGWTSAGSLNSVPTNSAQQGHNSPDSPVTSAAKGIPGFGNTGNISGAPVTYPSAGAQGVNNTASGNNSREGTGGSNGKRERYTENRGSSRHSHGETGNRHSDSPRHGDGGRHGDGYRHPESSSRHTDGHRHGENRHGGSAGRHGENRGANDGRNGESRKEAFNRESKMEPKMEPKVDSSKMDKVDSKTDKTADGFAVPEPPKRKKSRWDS
Also: in the data inactive means no Kd found up to 30 µM.

Sequence of Cyclin-dependent kinase 3 (Q00526 whole entry): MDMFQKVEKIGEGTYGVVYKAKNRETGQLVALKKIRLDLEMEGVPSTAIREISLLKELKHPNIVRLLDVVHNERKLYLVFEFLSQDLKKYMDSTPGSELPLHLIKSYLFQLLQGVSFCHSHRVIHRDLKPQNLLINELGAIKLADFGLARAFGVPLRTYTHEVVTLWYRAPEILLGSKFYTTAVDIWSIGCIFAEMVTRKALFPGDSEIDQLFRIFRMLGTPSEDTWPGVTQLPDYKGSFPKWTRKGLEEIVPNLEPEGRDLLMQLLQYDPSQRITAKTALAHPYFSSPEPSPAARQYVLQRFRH
Sequence of Calcium/calmodulin-dependent protein kinase type II subunit gamma (Q13555 whole entry): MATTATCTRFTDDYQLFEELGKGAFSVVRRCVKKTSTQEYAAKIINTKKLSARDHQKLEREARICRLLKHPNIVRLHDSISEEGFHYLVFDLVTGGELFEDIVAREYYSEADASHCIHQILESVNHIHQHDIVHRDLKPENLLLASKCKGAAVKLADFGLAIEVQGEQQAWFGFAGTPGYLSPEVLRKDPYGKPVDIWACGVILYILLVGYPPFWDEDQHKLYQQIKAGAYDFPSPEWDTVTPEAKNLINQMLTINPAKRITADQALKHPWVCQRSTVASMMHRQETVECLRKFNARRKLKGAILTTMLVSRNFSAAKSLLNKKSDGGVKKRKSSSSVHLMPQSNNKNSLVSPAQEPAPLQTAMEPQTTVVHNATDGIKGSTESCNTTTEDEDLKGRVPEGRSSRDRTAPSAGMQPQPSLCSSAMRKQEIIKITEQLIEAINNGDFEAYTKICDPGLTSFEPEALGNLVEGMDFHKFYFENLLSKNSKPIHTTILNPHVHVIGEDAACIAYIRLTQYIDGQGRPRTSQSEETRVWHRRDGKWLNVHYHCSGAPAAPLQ

| SMILES | Kd [1] | Kd [2] | Kd [3] | Kd [4] | Kd [5] | Kd [6] | Kd [7] |
| --- | --- | --- | --- | --- | --- | --- | --- |
| COc1cc(N2CCC(N3CCN(C)CC3)CC2)ccc1Nc1ncnc(Nc2ccccc2S(=O)(=O)C(C)C)n1 [ASP-3026] | > 30 µM (inactive) | > 30 µM (inactive) | > 30 µM (inactive) | > 30 µM (inactive) | > 30 µM (inactive) | 1.41 µM (active) | > 30 µM (inactive) |
| Cc1cc([C@@H](C)Nc2ccccc2C(=O)O)c2nc(N3CCOCC3)cc(=O)n2c1 [AZD-6482] | > 30 µM (inactive) | > 30 µM (inactive) | > 30 µM (inactive) | > 30 µM (inactive) | > 30 µM (inactive) | > 30 µM (inactive) | > 30 µM (inactive) |
| COc1ccc(-c2ccc3c(N4CCOC[C@@H]4C)nc(N4CCOC[C@@H]4C)nc3n2)cc1CO [AZD-8055] | > 30 µM (inactive) | > 30 µM (inactive) | > 30 µM (inactive) | > 30 µM (inactive) | > 30 µM (inactive) | > 30 µM (inactive) | > 30 µM (inactive) |
| Cc1ccc(NC(=O)c2ccc(CN3CC[C@H](N(C)C)C3)c(C(F)(F)F)c2)cc1Nc1nccc(-c2cncnc2)n1 [BAFETINIB] | > 30 µM (inactive) | > 30 µM (inactive) | > 30 µM (inactive) | > 30 µM (inactive) | > 30 µM (inactive) | > 30 µM (inactive) | > 30 µM (inactive) |
| CCS(=O)(=O)N1CC(CC#N)(n2cc(-c3ncnc4[nH]ccc34)cn2)C1 [BARICITINIB] | > 30 µM (inactive) | > 30 µM (inactive) | > 30 µM (inactive) | > 30 µM (inactive) | > 30 µM (inactive) | 0.243 µM (active) | > 30 µM (inactive) |
| COC(=O)N[C@@H](C)CNc1nccc(-c2cn(C(C)C)nc2-c2cc(Cl)cc(NS(C)(=O)=O)c2F)n1 [ENCORAFENIB] | > 30 µM (inactive) | > 30 µM (inactive) | > 30 µM (inactive) | 3.32 µM (active) | > 30 µM (inactive) | > 30 µM (inactive) | > 30 µM (inactive) |
| CO[C@H]1C[C@@H]2CC[C@@H](C)[C@@](O)(O2)C(=O)C(=O)N2CCCC[C@H]2C(=O)O[C@H]([C@H](C)C[C@@H]2CC[C@@H](OCCO)[C@H](OC)C2)CC(=O)[C@H](C)/C=C(\C)[C@@H](O)[C@@H](OC)C(=O)[C@H](C)C[C@H](C)/C=C/C=C/C=C/1C [EVEROLIMUS] | > 30 µM (inactive) | > 30 µM (inactive) | > 30 µM (inactive) | > 30 µM (inactive) | > 30 µM (inactive) | > 30 µM (inactive) | > 30 µM (inactive) |

Now from value to compound:

| Kd [1] | Kd [2] | Kd [3] | Kd [4] | Kd [5] | Kd [6] | Kd [7] | SMILES |
| --- | --- | --- | --- | --- | --- | --- | --- |
| > 30 µM (inactive) | > 30 µM (inactive) | > 30 µM (inactive) | > 30 µM (inactive) | > 30 µM (inactive) | > 30 µM (inactive) | > 30 µM (inactive) | CCN1CCN(Cc2ccc(-c3cc4c(N[C@H](C)c5ccccc5)ncnc4[nH]3)cc2)CC1 [AEE-788] |
| > 30 µM (inactive) | > 30 µM (inactive) | > 30 µM (inactive) | > 30 µM (inactive) | > 30 µM (inactive) | > 30 µM (inactive) | > 30 µM (inactive) | Cn1ncc(Cl)c1-c1cc(C(=O)N[C@H](CN)Cc2cccc(F)c2)sc1Cl [AFURESERTIB] |
| > 30 µM (inactive) | > 30 µM (inactive) | > 30 µM (inactive) | > 30 µM (inactive) | > 30 µM (inactive) | > 30 µM (inactive) | > 30 µM (inactive) | CNS(=O)(=O)Nc1nccc(Cc2c(C)c3ccc(Oc4ncccn4)cc3oc2=O)c1F [AVUTOMETINIB] |
| > 30 µM (inactive) | > 30 µM (inactive) | > 30 µM (inactive) | > 30 µM (inactive) | > 30 µM (inactive) | > 30 µM (inactive) | > 30 µM (inactive) | Cc1cc2c(F)c(Oc3ncnn4cc(OC[C@@H](C)OC(=O)[C@H](C)N)c(C)c34)ccc2[nH]1 [BRIVANIB ALANINATE] |
| > 30 µM (inactive) | > 30 µM (inactive) | > 30 µM (inactive) | > 30 µM (inactive) | > 30 µM (inactive) | > 30 µM (inactive) | > 30 µM (inactive) | COCCNCc1ccc(-c2cc3nccc(Oc4ccc(NC(=S)NC(=O)Cc5ccc(F)cc5)cc4F)c3s2)nc1 [GLESATINIB] |

Source: ChEMBL document CHEMBL3991601, “The target landscape of clinical kinase drugs” (Science, 2017)
